Data on eleven molecules can be found in patent publication US10526347B2, “3-(3H-imidazo[4,5-B]pyridin-2-yl)-1H-pyrazolo[3,4-B]pyridine and therapeutic uses thereof” (Samumed, LLC, priority 2014, dated 2020).

SMILES strings stand for the structures. pEC50, pIC50: −log10 of the molar value. Some results are limits rather than exact numbers.

For assay [1], the system named is Wnt activity (SW480 colon carcinoma cells stably expressing the Sp5-Luc reporter gene). In words: Sp5-Luc reporter gene screening assay for Wnt activity. The settings on record: Homo sapiens. The format is cell-based. From the text: The screening assay for Wnt activity is described as follows. Reporter cell lines can be generated by stably transducing cancer cell lines (e.g., colon cancer) or primary cells (e.g., IEC-6 intestinal cells) with a lentiviral construct that includes a Wnt-responsive promoter driving expression of the firefly luciferase gene.
SW480 colon carcinoma cells were transduced with a lentiviral vector expressing luciferase with a human Sp5 promoter consisting of a sequence of eight TCF/LEF binding sites. SW480 cells stably expressing the Sp5-Luc reporter gene and a hygromycin resistance gene were selected by treatment with 150 μg/ml of hygromycin for 7 days. These stably transduced SW480 cells were expanded in cell culture and used for all further screening activities. For Sp5-Luc reporter gene assays, the cells were plated at 10,000 cells/well in 96-well plates with growth medium containing 10% fetal calf serum and incubated overnight at 37° C. and 5% CO2. Each compound was dissolved in DMSO as a 10 mM stock in standard j-vials and used to prepare compound source plates in dose-response format with 3-fold serial dilutions and a 10 mM top concentration. Compound transfer from serially diluted source plates to assay plates containing the cells was accomplished using a pintool (Multimek 96, Beckman equipped with V&P Scientific FP1S50H pins) based liquid handling protocol. This protocol used a slotted pin to transfer 50 nl of compound from a source plate well to an assay plate well containing 50 μl of cells in growth medium. […] Control wells received 50 nl of DMSO treatment for normalization and calculating IC50 values. The treated cells were incubated at 37° C. and 5% CO2 for an additional forty-two hours. Following incubation, the growth medium was removed and 50 μl of BrightGlo luminescence reagent (Promega) was added to each well of the 96-well assay plates. The plates were placed on an orbital shaker for 5 min and then luminescence was quantified on the Victor3 (Perkin Elmer) plate reader. Readings were normalized to DMSO only treated cells, and normalized activities were utilized for IC50 calculations using the dose-response log (inhibitor) vs. response -variable slope (four parameters) nonlinear regression feature available in GraphPad Prism 5.0 or 6.0.
Background: A reporter such as luciferase makes a cellular process visible.

Assay [2] concerns primary human fibroblasts derived from IPF patients (LL29 cells). Kind of assay: Inhibition of the fibrotic process in TGF-β1 treated IPF patient fibroblasts (αSMA staining). The format is cell-based. The settings on record: Fibroblast, 96 h, LL29 cells treated with TGF-β1 (20 ng/mL), 4 days, read-out: Inhibition of fibrosis EC50. An excerpt:
The above synthesized compounds were screened using primary human fibroblasts (derived from IPF patients) treated with TGF-β1 to determine their ability to inhibit the fibrotic process.
Primary human fibroblasts derived from IPF patients (LL29 cells) [^1Xiaoqiu Liu, et. al., “Fibrotic Lung Fibroblasts Show Blunted Inhibition by cAMP Due to Deficient cAMP Response Element-Binding Protein Phosphorylation”, Journal of Pharmacology and Experimental Therapeutics (2005), 315(2), 678-687; ^2Watts, K. L., et. al., “RhoA signaling modulates cyclin D1 expression in human lung fibroblasts; implications for idiopathic pulmonary fibrosis”, Respiratory Research (2006), 7(1), 88] were obtained from American Type Culture Collection (ATCC) and expanded in F12 medium supplemented with 15% Fetal Bovine Serum and Penicillin/Streptomycin.
Each compound was dissolved in DMSO as a 10 mM stock and used to prepare compound source plates. Serial dilution (1:2, 11-point dose-response curves from 10 μM to 1.87 nM) and compound transfer was performed using the ECHO 550 (Labcyte, Sunnyvale, Calif.) into 384-well clear bottom assay plates (Greiner Bio-One) with appropriate DMSO backfill for a final DMSO concentration of 0.1%. LL29 cells were plated at 1,500 cells/well in 80 μl/well F12 medium supplemented with 1% Fetal Bovine Serum. One hour after addition of the cells, TGF-β1 (Peprotech; 20 ng/mL) was added to the plates to induce fibrosis (ref. 1 and 2 above). Wells treated with TGF-β1 and containing DMSO were used as controls. Cells were incubated at 37° C. and 5% CO2 for 4 days. Following incubation for 4 days, SYTOX green nucleic acid stain (Life Technologies [Thermo Fisher Scientific]) was added to the wells at a final concentration of 1 uM and incubated at room temperature for 30 min. Cells were then fixed using 4% formaldehyde (Electron Microscopy Sciences), washed 3 times with PBS followed by blocking and permeabilization using 3% Bovine Serum Albumin (BSA; Sigma) and 0.3% Triton X-100 (Sigma) in PBS. Cells were then stained with antibody specific to α-smooth muscle actin (αSMA; Abcam) (ref. 1 and 2 above) in 3% Bovine Serum Albumin (BSA; Sigma) and 0.3% Triton X-100 (Sigma) in PBS, and incubated overnight at 4° C. Cells were then washed 3 times with PBS, followed by incubation with Alexa Flor-647 conjugated secondary antibody (Life Technologies [Thermo Fisher Scientific]) and DAPI at room temperature for 1 hour. Cells were then washed 3 times with PBS and plates were sealed for imaging. αSMA staining was imaged by excitation at 630 nm and emission at 665 nm and quantified using the Compartmental Analysis program on the CellInsight CX5 (Thermo Scientific). Dead or apoptotic cells were excluded from analysis based on positive SYTOX green staining. % of total cells positive for αSMA were counted in each well and normalized to the average of 11 wells treated with TGF-β1 on the same plate using Dotmatics' Studies Software. The normalized averages (fold change over untreated) of 3 replicate wells for each compound concentration were used to create dose-responses curves and EC50 values were calculated using non-linear regression curve fit in the Dotmatics' Studies Software. The EC50 values are reported.

In assay [1], `O=C(Nc1cncc(-c2cnc3[nH]nc(-c4nc5c(-c6ccccc6F)ccnc5[nH]4)c3c2)c1)C1CCCC1` [Compound 61, N-(5-(3-(7-(2-Fluorophenyl)-3H-imidazo[4,5-b]pyridin-2-yl)-1H-pyrazolo[3,4-b]pyridin-5-yl)pyridin-3-yl)cyclopentanecarboxamide] had a pIC50 of 7.38. The negative logarithm of the EC50 (pEC50) in assay [2] is 6.23.

As to `Fc1cccc(-c2ccnc3[nH]c(-c4n[nH]c5ncc(-c6ccccn6)cc45)nc23)c1` [Compound 925, 3-(7-(3-Fluorophenyl)-3H-imidazo[4,5-b]pyridin-2-yl)-5-(pyridin-2-yl)-1H-pyrazolo[3,4-b]pyridine], the pIC50 in assay [1] is less than 5.00. In addition, the pEC50 in assay [2] was no more than 5.00.

Consider `O=C(Nc1cncc(-c2cnc3[nH]nc(-c4nc5c(-c6ccncc6)ccnc5[nH]4)c3c2)c1)C1CCCCC1` [Compound 106, N-(5-(3-(7-(Pyridin-4-yl)-3H-imidazo[4,5-b]pyridin-2-yl)-1H-pyrazolo[3,4-b]pyridin-5-yl)pyridin-3-yl)cyclohexanecarboxamide], for which, in assay [1], the pIC50 is less than 5.00. In addition, the pEC50 in assay [2] is no more than 5.00.

Molecule `CS(=O)(=O)NCc1cc(F)cc(-c2ccnc3[nH]c(-c4n[nH]c5ncc(-c6cncnc6)cc45)nc23)c1` [Compound 414, N-(3-Fluoro-5-(2-(5-(pyrimidin-5-yl)-1H-pyrazolo[3,4-b]pyridin-3-yl)-3H-imidazo[4,5-b]pyridin-7-yl)benzyl)methanesulfonamide] gave a pIC50 in assay [1] of less than 5.00. Moreover, in assay [2], the pEC50 was no more than 5.00.

As for `CC(=O)c1ccc(-c2ccnc3[nH]c(-c4n[nH]c5ncc(-c6cncc(NC(=O)C7CCCCC7)c6)cc45)nc23)s1` [Compound 384, N-(5-(3-(7-(5-Acetylthiophen-2-yl)-3H-imidazo[4,5-b]pyridin-2-yl)-1H-pyrazolo[3,4-b]pyridin-5-yl)pyridin-3-yl)cyclohexanecarboxamide], the pIC50 in assay [1] was less than 5.00. For the same molecule, the pEC50 in assay [2] is no more than 5.00.

`c1cncc(-c2ccnc3[nH]c(-c4n[nH]c5ncc(-c6cncc(CN7CCCCC7)c6)cc45)nc23)c1` [Compound 78, 5-(5-(Piperidin-1-ylmethyl)pyridin-3-yl)-3-(7-(pyridin-3-yl)-3H-imidazo[4,5-b]pyridin-2-yl)-1H-pyrazolo[3,4-b]pyridine] had a pIC50 in assay [1] of less than 5.00. In addition, the pEC50 in assay [2] was no more than 5.00.

In assay [1], `Cc1ccncc1-c1cnc2[nH]nc(-c3nc4c(-c5ccsc5)ccnc4[nH]3)c2c1` [Compound 237, 5-(4-Methylpyridin-3-yl)-3-(7-(thiophen-3-yl)-3H-imidazo[4,5-b]pyridin-2-yl)-1H-pyrazolo[3,4-b]pyridine] had a pIC50 of 7.67. The pEC50 in assay [2] was 6.55.

In the case of `CC(C)Nc1cncc(-c2cnc3[nH]nc(-c4nc5c(-c6ccoc6)ccnc5[nH]4)c3c2)c1` [Compound 270, 5-(3-(7-(Furan-3-yl)-3H-imidazo[4,5-b]pyridin-2-yl)-1H-pyrazolo[3,4-b]pyridin-5-yl)-N-isopropylpyridin-3-amine], the pIC50 in assay [1] was 7.35. For the same molecule, in assay [2], the pEC50 was 6.10.

On to `O=C(Nc1cncc(-c2cnc3[nH]nc(-c4nc5cccnc5[nH]4)c3c2)c1)C1CCCCC1` [Compound 228, N-(5-(3-(3H-Imidazo[4,5-b]pyridin-2-yl)-1H-pyrazolo[3,4-b]pyridin-5-yl)pyridin-3-yl)cyclohexanecarboxamide], for which the pIC50 in assay [1] was less than 5.00. Besides, the pEC50 in assay [2] was no less than 8.05.

For the molecule `CN(C)Cc1cncc(-c2cnc3[nH]nc(-c4nc5c(N6CCCCC6)ccnc5[nH]4)c3c2)c1` [Compound 145, N,N-Dimethyl-1-(5-(3-(7-(piperidin-1-yl)-3H-imidazo[4,5-b]pyridin-2-yl)-1H-pyrazolo[3,4-b]pyridin-5-yl)pyridin-3-yl)methanamine], the pIC50 in assay [1] is 5.55. Further, the pEC50 in assay [2] was 5.84.

`CC(C)(C)C(=O)Nc1cncc(-c2cnc3[nH]nc(-c4nc5c(-c6ccc(F)cc6)ccnc5[nH]4)c3c2)c1` [Compound 28, N-(5-(3-(7-(4-Fluorophenyl)-3H-imidazo[4,5-b]pyridin-2-yl)-1H-pyrazolo[3,4-b]pyridin-5-yl)pyridin-3-yl)pivalamide] had a pIC50 in assay [1] of 7.37. In assay [2], the pEC50 was 7.59.

Broadly, the pIC50 is −log10 of the IC50, conventionally taken in molar units. Read a high pIC50 as a low IC50. As a reminder, the pEC50 is the EC50 on a negative log10 scale, so that one unit is a factor of ten.
